In patent US7666611B2, “Lysophosphatidic acid receptor” (Japan Science and Technology Agency, priority 2003, dated 2010):
“Also recorded” adds a separate entry of the source.

What was measured:
p2y9 = target: T1, p2y9 (Homo sapiens, UniProt Q99677); experiment: Intracellular calcium increase in four CHO clones stably expressing p2y9 (Fura-2); format: cell-based; settings: p2y9 clones vs negative control, FIG. 15
T1 construct: expressed in transfected cells
Method: Then the investigation with respect to CHO clone has been carried out. Experiment of calcium incorporation was conducted in four independent CHO clones, #01, #09, #15 and #20, stably expressing p2y9. […] As a negative control, CHO cells which acquired neomycin resistance by transfected only with pCXN2.1 vector were used.
Four types of CHO clones, #01, #09, #15 and #20, stably expressing p2y9 were incubated for 24 hours in the medium of Ham's F-12 supplemented with 0.1% BSA in replacement of Ham's F-12 supplemented with 10% fetal bovine serum. The cells were then suspended in HEPES-Tyrode's buffer (140 mM NaCl, 2.7 mM KCl, 1 mM CaCl2, 12 mM NaHCO3, 5.6 mM D-glucose, 0.49 mM MgCl2, 0.37 mM NaH2PO4, and 25 mM HEPES-NaOH (pH 7.4)) containing 3 μM Fura-2 (calcium indicator) and 0.01% Cremophor EL. Cells were incubated at 37° C. for 1 hour for incorporation of Fura-2. Cells were then resuspended in HEPES-Tyrode's buffer in order to achieve a cell density of 1×10^6 cells/ml. The changes in intracellular concentrations with addition of various concentrations of LPAs were monitored by using CAF-100 spectrofluorometer (Jasco, Tokyo, Japan). As a negative control, CHO cells which acquired neomycin resistance by transfected only with pCXN2.1 vector were used.

[1] = tested on: ATP receptors endogenously expressed in CHO cells; experiment: ATP positive control, intracellular calcium change in CHO clones; format: cell-based; settings: ATP 1 μM, 10 μM and 100 μM
Method: Over 200 lipids (Lipid Library; BIOMOL) and nucleotides were screened using CHO clones of respective receptors by monitoring changes in intracellular calcium concentrations. As positive controls for the screenings, ATP with concentrations of 1 μM, 10 μM and 100 μM were used.
CHO clones of four individual receptors such as GPR34, p2y5, p2y9 and p2y10 were seeded respectively in three 96-well plates at a density of 4×10^4 cells/well. On the following day, cells were loaded with 4 μM of Fluo-3 (calcium indicator) and incubated at 37° C. for 1 hour for incorporation of Fluo-3. Cells were then reacted with individual lipids (1 to 10 μM) contained in the Lipid Library of BIOMOL comprising over 200 kinds of lipid molecules and 17 nucleotides (1 to 100 μM) such as ATP, then time course kinetics of intracellular calcium mobilization was monitored with FLEXstation of Molecular Devices.
This enabled to confirm the relevance of the experiment.

T1 sequence (Q99677 whole entry): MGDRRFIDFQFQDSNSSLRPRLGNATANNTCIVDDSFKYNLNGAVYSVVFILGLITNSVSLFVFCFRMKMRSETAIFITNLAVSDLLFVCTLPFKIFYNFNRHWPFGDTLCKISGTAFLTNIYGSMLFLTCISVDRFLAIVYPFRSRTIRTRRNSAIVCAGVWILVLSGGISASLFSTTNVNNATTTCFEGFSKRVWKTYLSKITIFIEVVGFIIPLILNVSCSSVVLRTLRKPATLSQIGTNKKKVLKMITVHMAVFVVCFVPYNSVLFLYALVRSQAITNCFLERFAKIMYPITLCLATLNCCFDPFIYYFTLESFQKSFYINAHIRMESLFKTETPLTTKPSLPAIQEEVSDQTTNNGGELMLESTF

Nc1ncnc2c1ncn2[C@@H]1O[C@H](COP(=O)(O)OP(=O)(O)OP(=O)(O)O)[C@@H](O)[C@H]1O [ATP]
increase in intracellular calcium concentration (p2y9; ATP 10 μM): no significant difference; also recorded: no significant changes
change in intracellular calcium concentration [1]: remarkable change in intracellular calcium concentration beyond the measurable range; also recorded: changes in calcium concentration beyond the measurable range

platelet activating factor [PAF]
increase in intracellular calcium concentration (p2y9; PAF 1 μM): no significant difference; also recorded: no significant changes

thrombin
increase in intracellular calcium concentration (p2y9; thrombin 0.1 NIH units/ml): no significant difference; also recorded: no significant changes
